Assay results: US10597388B2, “Pyridazinone herbicides” (FMC CORPORATION, priority 2014, dated 2020)

Key:
Format in all cases: in vivo
[1] = system: galium (catchweed bedstraw, Galium aparine); test: Test A greenhouse herbicide test, postemergence; details: for Galium plant response rating: 1000 g ai/ha, 0 is no effect, 100 is complete control
How it was run: (§1)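 Pot-grown plants (loam soil/sand blend), 2–10 cm tall at the one- to two-leaf stage, received postemergence sprays of formulated test chemical. After about 10 d in the greenhouse, injury was rated visually against untreated controls on a 0 (no effect) to 100 (complete control) scale.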

[2] = system: blackgrass (Alopecurus myosuroides); test: Test A greenhouse herbicide test, postemergence; details: for Blackgrass plant response rating: 1000 g ai/ha, 0 is no effect, 100 is complete control
How it was run: as §1

[3] = system: wheat (Triticum aestivum); test: Test A greenhouse herbicide test, pre- and postemergence; details: Postemergence; for Wheat plant response rating: 1000 g ai/ha, 0 is no effect, 100 is complete control
How it was run: (§2)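 Seeds in loam–sand blend received a preemergence directed soil spray; plants at 2–10 cm, one- to two-leaf stage, received postemergence sprays. Compounds in a non-phytotoxic solvent with surfactant. After about 10 d in a greenhouse, injury rated visually versus untreated controls on a 0–100 scale (100 = complete control).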

[4] = system: ryegrass, Italian (Italian ryegrass, Lolium multiflorum); test: as above; details: for Ryegrass, Italian plant response rating: 0 is no effect, 100 is complete control
How it was run: as §2

[5] = system: barnyardgrass (Echinochloa crus-galli); test: as above; details: for Barnyardgrass plant response rating: 0 is no effect, 100 is complete control
How it was run: as §2

[6] = system: pigweed (Amaranthus retroflexus); test: as above; details: for Pigweed plant response rating: 0 is no effect, 100 is complete control
How it was run: as §2

[7] = system: ragweed (common ragweed, Ambrosia elatior); test: as above; details: for Ragweed plant response rating: 0 is no effect, 100 is complete control
How it was run: as §2

[8] = system: foxtail, giant (giant foxtail, Setaria faberii); test: as above; details: for Foxtail, Giant plant response rating: 0 is no effect, 100 is complete control
How it was run: as §2

[9] = system: corn (Zea mays); test: as above; details: Postemergence; for Corn plant response rating: 1000 g ai/ha, 0 is no effect, 100 is complete control
How it was run: as §2

[10] = system: kochia (Kochia scoparia); test: as above; details: for Kochia plant response rating: 0 is no effect, 100 is complete control
How it was run: as §2

[11] = system: sedge, umbrella (small-flower umbrella sedge, Cyperus difformis); test: Test B flooded paddy test; details: 250 g ai/ha, Flood; visual rating on scale of 0 to 100 where 0 is no effect and 100 is complete control; 13 to 15 d after treatment
How it was run: (§3)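 Plants grown to the 2-leaf stage. At treatment, pots were flooded to 3 cm above the soil, compound was applied directly to the paddy water, and that depth was held throughout. After 13 to 15 d in the greenhouse, response was rated visually against controls on a 0 (no effect) to 100 (complete control) scale.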

[12] = system: barnyardgrass (Echinochloa crus-galli); test: Test B flooded paddy test; details: 250 g ai/ha, Flood; visual rating on scale of 0 to 100 where 0 is no effect and 100 is complete control; 13 to 15 d after treatment
How it was run: as §3

[13] = system: ducksalad (Heteranthera limosa); test: Test B flooded paddy test; details: 250 g ai/ha, Flood; visual rating on scale of 0 to 100 where 0 is no effect and 100 is complete control; 13 to 15 d after treatment
How it was run: as §3

[14] = system: rice (Oryza sativa); test: Test B flooded paddy test; details: 250 g ai/ha, Flood; visual rating on scale of 0 to 100 where 0 is no effect and 100 is complete control; 13 to 15 d after treatment
How it was run: as §3

[15] = Postemergence, 1000 g ai/ha, 0 to 100 scale
[16] = Preemergence, 1000 g ai/ha, 0 to 100 scale, 0 no effect, 100 complete control
[17] = 125 g ai/ha, 0 to 100 scale, 0 no effect, 100 complete control
[18] = 500 g ai/ha, visual rating after approx. 10 d, 0 to 100 scale (0 no effect, 100 complete control)
[19] = Postemergence, 125 g ai/ha, 0 to 100 scale, 0 no effect, 100 complete control
[20] = Postemergence, 500 g ai/ha, visual rating after approx. 10 d, 0 to 100 scale (0 no effect, 100 complete control)
[21] = Preemergence, 125 g ai/ha, visual injury rating, 0 to 100 scale (0 no effect, 100 complete control), approx. 10 d
[22] = Preemergence, 500 g ai/ha, 0 to 100 scale where 0 is no effect and 100 is complete control

Structure (SMILES): Cc1nn(C)c(=O)c(-c2cccc3ccccc23)c1OC(=O)C=Cc1ccccc1 [Compound 183]
- Galium plant response rating ([1]; 0 to 100 scale): 90
- Blackgrass plant response rating ([2]; 0 to 100 scale): 80
- Wheat plant response rating ([3]; 0 to 100 scale): 0
- Ryegrass, Italian plant response rating [4, 15]: 100
- Plant response rating, Ryegrass, Italian [4, 16]: 90
- Barnyardgrass plant response rating [5, 15]: 40
- Plant response rating, Barnyardgrass [5, 16]: 40
- Pigweed plant response rating [6, 15]: 90
- Plant response rating, Pigweed [6, 16]: 90
- Ragweed plant response rating [7, 15]: 70
- Plant response rating, Ragweed [7, 16]: 80
- Foxtail, Giant plant response rating [8, 15]: 70
- Plant response rating, Foxtail, Giant [8, 16]: 60
- Corn plant response rating ([9]; 0 to 100 scale): 10
- Kochia plant response rating [10, 15]: 90
- Plant response rating, Kochia [10, 16]: 70
- Plant response rating, Sedge, Umbrella [11]: 0
- Plant response rating, Barnyardgrass [12]: 0
- Plant response rating, Ducksalad [13]: 0
- Plant response rating, Rice [14]: 0

Structure (SMILES): Cc1nn(C)c(=O)c(-c2cccc3ccccc23)c1OCC(=O)c1ccccc1 [Compound 184]
- Galium plant response rating ([1]; 0 to 100 scale): 90
- Blackgrass plant response rating ([2]; 0 to 100 scale): 30
- Wheat plant response rating ([3]; 0 to 100 scale): 0
- Ryegrass, Italian plant response rating [4, 15]: 80
- Plant response rating, Ryegrass, Italian [4, 16]: 90
- Barnyardgrass plant response rating [5, 15]: 20
- Plant response rating, Barnyardgrass [5, 16]: 10
- Pigweed plant response rating [6, 15]: 80
- Plant response rating, Pigweed [6, 16]: 90
- Ragweed plant response rating [7, 15]: 30
- Plant response rating, Ragweed [7, 16]: 70
- Foxtail, Giant plant response rating [8, 15]: 20
- Plant response rating, Foxtail, Giant [8, 16]: 30
- Corn plant response rating ([9]; 0 to 100 scale): 0
- Kochia plant response rating [10, 15]: 80
- Plant response rating, Kochia [10, 16]: 20
- Plant response rating, Sedge, Umbrella [11]: 0
- Plant response rating, Barnyardgrass [12]: 0
- Plant response rating, Ducksalad [13]: 0
- Plant response rating, Rice [14]: 0

Structure (SMILES): Cc1nn(C)c(=O)c(-c2ccc(Cl)c3ccccc23)c1OS(=O)(=O)N(C)C [Compound 185]
- Plant response rating, Galium [1, 17]: 70
- Plant response rating, Galium [1, 18]: 90
- Plant response rating, Blackgrass [2, 17]: 0
- Plant response rating, Blackgrass [2, 18]: 20
- Plant response rating, Wheat [3, 17]: 0
- Plant response rating, Wheat [3, 18]: 0
- Plant response rating, Ryegrass, Italian [4, 19]: 70
- Plant response rating, Ryegrass, Italian [4, 20]: 80
- Plant response rating, Ryegrass, Italian [4, 21]: 0
- Plant response rating, Ryegrass, Italian [4, 22]: 40
- Plant response rating, Barnyardgrass [5, 19]: 10
- Plant response rating, Barnyardgrass [5, 20]: 30
- Plant response rating, Barnyardgrass [5, 21]: 0
- Plant response rating, Barnyardgrass [5, 22]: 50
- Plant response rating, Pigweed [6, 19]: 50
- Plant response rating, Pigweed [6, 20]: 90
- Plant response rating, Pigweed [6, 21]: 20
- Plant response rating, Pigweed [6, 22]: 60
- Plant response rating, Ragweed [7, 19]: 10
- Plant response rating, Ragweed [7, 20]: 50
- Plant response rating, Ragweed [7, 21]: 0
- Plant response rating, Ragweed [7, 22]: 40
- Plant response rating, Foxtail, Giant [8, 19]: 0
- Plant response rating, Foxtail, Giant [8, 20]: 20
- Plant response rating, Foxtail, Giant [8, 21]: 0
- Plant response rating, Foxtail, Giant [8, 22]: 30
- Plant response rating, Corn [9, 17]: 0
- Plant response rating, Corn [9, 18]: 30
- Plant response rating, Kochia [10, 19]: 70
- Plant response rating, Kochia [10, 20]: 100
- Plant response rating, Kochia [10, 21]: 0
- Plant response rating, Kochia [10, 22]: 10
- Plant response rating, Sedge, Umbrella [11]: 0
- Plant response rating, Barnyardgrass [12]: 0
- Plant response rating, Ducksalad [13]: 0
- Plant response rating, Rice [14]: 0
